For assay [1], the target named is Sodium-dependent dopamine transporter (Homo sapiens, UniProt Q01959). Nature of the assay: DRUGMATRIX: Dopamine Transporter radioligand binding (ligand: [125I] RTI-55). The assay is classed as cell membranes, CHO-K1, Membrane. The following applies: Not Active = under 50% inhibition at 10 µM.
Assay [2] is described as follows: DRUGMATRIX: Imidazoline I2, Central radioligand binding (ligand: [3H] Idazoxan). Type of assay: cell membranes, Rattus norvegicus, Wistar, Cerebral cortex, Membrane. The following applies: Not Active = under 50% inhibition at 10 µM.
For assay [3], the target named is 5-hydroxytryptamine receptor 6 (Homo sapiens, UniProt P50406). The assay is classed as cell membranes, HeLa, Membrane. Also: in other assays of this panel Not Active means under 50% inhibition at 10 µM.
5-hydroxytryptamine receptor 6, sequence (P50406 whole entry): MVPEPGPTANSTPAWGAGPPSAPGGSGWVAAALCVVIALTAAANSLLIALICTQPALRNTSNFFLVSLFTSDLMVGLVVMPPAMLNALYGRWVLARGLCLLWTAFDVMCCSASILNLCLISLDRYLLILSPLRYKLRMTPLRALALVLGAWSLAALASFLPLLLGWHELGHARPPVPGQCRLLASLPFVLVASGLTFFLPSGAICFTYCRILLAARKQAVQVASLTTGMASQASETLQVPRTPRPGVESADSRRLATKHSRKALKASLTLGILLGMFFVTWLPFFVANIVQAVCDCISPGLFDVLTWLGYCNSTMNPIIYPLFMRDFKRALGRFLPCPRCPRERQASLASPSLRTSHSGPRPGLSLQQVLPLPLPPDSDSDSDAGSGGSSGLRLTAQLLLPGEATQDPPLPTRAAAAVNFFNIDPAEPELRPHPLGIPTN
Assay [4] can be described thus: DRUGMATRIX: Phosphodiesterase PDE3 enzyme inhibition (substrate: [3H]cAMP + cAMP). Type of assay: tissue-based, Homo sapiens. The conditions noted are these: platelet, Not Active = under 50% inhibition at 10 µM.
Assay [5] has as its target T1, Neutrophil elastase (Homo sapiens, UniProt P08246).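 Also: inhibition of neutrophil elastase enzyme activity, measured with a p-nitroanilide-linked peptide substrate; in other assays of this panel Not Active means under 50% inhibition at 10 µM.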
T1 sequence (P08246 whole entry): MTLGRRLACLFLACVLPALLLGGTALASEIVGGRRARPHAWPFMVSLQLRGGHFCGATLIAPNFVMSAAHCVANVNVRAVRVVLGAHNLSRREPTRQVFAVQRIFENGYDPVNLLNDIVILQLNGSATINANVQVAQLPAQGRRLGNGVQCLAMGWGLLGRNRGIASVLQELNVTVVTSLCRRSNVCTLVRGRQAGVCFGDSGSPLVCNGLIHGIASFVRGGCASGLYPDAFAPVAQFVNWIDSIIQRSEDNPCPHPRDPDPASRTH
Type of assay: tissue-based.

Assay [6] has as its target T2, Caspase-1 (Homo sapiens, UniProt P29466).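 Also: Caspase-1 enzyme inhibition assay with a peptide substrate; in other assays of this panel Not Active means under 50% inhibition at 10 µM.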
T2 sequence (P29466 whole entry): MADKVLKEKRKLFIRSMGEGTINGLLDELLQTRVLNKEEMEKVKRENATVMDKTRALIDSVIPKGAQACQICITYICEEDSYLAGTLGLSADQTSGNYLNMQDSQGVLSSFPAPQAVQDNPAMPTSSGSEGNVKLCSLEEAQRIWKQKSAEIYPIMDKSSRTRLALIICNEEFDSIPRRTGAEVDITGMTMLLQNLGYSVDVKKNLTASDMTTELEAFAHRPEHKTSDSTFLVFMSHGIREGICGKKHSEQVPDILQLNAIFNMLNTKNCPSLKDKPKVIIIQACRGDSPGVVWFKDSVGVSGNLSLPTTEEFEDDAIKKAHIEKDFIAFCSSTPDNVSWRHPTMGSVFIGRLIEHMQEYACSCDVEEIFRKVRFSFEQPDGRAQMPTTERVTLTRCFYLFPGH
More on the design: species or system Escherichia coli.

A word on the IC50: it is the midpoint of a concentration-inhibition curve. A word on the Ki: it is a measure of affinity in units of concentration, obtained from inhibition or displacement.

Structures are written as SMILES.

Sodium-dependent dopamine transporter, sequence (Q01959 whole entry): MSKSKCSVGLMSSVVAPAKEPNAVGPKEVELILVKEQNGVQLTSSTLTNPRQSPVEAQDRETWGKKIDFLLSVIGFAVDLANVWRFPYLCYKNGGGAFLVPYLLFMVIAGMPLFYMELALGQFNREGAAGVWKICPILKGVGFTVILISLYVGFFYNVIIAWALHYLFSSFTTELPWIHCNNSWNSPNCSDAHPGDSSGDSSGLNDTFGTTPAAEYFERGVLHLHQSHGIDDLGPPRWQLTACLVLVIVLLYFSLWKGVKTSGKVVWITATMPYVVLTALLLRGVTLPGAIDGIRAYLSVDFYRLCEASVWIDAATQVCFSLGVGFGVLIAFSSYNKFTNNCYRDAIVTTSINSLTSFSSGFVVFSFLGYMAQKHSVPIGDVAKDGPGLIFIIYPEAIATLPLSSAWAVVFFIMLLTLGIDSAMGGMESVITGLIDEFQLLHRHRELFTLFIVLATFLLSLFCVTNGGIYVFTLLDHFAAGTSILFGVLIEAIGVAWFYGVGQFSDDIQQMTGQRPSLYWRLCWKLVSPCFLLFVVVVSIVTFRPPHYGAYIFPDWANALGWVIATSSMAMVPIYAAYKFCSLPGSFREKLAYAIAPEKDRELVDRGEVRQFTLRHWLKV

Take `CC(C)(C(=O)O)c1ccc(C(O)CCCN2CCC(C(O)(c3ccccc3)c3ccccc3)CC2)cc1` (stereo not given) [FEXOFENADINE]: the IC50 result in assay [1] (cho-k1), in assay [2], in assay [3] (hela), in assay [4], in assay [5] and in assay [6] was “Not Active” throughout. Further, the Ki entry in assay [2] and in assay [4] was “Not Active” each time.

Consider `CN1CCN(c2c(F)cc3c(=O)c(C(=O)O)cn(CCF)c3c2F)CC1` [FLEROXACIN], for which the half-inhibitory concentration (IC50) entry in assay [1] (cho-k1), in assay [2], in assay [3] (hela), in assay [4], in assay [5] and in assay [6] was “Not Active” throughout. In addition, the Ki result in assay [2] and in assay [4] was “Not Active” in each case.

On to `O=c1[nH]c(=O)n([C@H]2C[C@H](O)[C@@H](CO)O2)cc1F` [FLOXURIDINE], for which the IC50 entry in assay [1] (cho-k1), in assay [2], in assay [3] (hela), in assay [4], in assay [5] and in assay [6] was “Not Active” each time. Besides, the inhibition constant (Ki) entry in assay [2] and in assay [4] was “Not Active” throughout.

Take `COC(=O)Nc1nc2cc(C(=O)c3ccc(F)cc3)ccc2[nH]1` [FLUBENDAZOLE]: the IC50 result in assay [1] (cho-k1), in assay [2], in assay [3] (hela), in assay [4], in assay [5] and in assay [6] was “Not Active” in each case. Also, the inhibition constant (Ki) entry in assay [2] and in assay [4] was “Not Active” in each case.

With `CC(=O)OCC(=O)[C@@]1(O)CC[C@H]2[C@@H]3CCC4=CC(=O)CC[C@]4(C)[C@@]3(F)[C@@H](O)C[C@@]21C` [FLUDROCORTISONE ACETATE], the IC50 result in assay [1] (cho-k1), in assay [2], in assay [3] (hela), in assay [4], in assay [5] and in assay [6] was “Not Active” in each case. Also, the inhibition constant (Ki) entry in assay [2] and in assay [4] was “Not Active” in each case.

Take `CCOC(=O)c1ncn2c1CN(C)C(=O)c1cc(F)ccc1-2` [FLUMAZENIL]: the IC50 result in assay [1] (cho-k1), in assay [2], in assay [3] (hela), in assay [4], in assay [5] and in assay [6] was “Not Active” each time. Also, the Ki entry in assay [2] and in assay [4] was “Not Active” in each case.

`CC(=O)OCC(=O)[C@@]12OC(C)(C)O[C@@H]1C[C@H]1[C@@H]3C[C@H](F)C4=CC(=O)C=C[C@]4(C)[C@@]3(F)[C@@H](O)C[C@@]12C` [FLUOCINONIDE]: the half-inhibitory concentration (IC50) entry in assay [1] (cho-k1), in assay [2], in assay [3] (hela), in assay [4], in assay [5] and in assay [6] was “Not Active” in each case. The inhibitory constant (Ki) entry in assay [2] and in assay [4] was “Not Active” throughout.

Consider `O=C(O)P(=O)(O)O` [FOSCARNET], for which the IC50 result in assay [1] (cho-k1), in assay [2], in assay [3] (hela), in assay [4], in assay [5] and in assay [6] was “Not Active” throughout. Further, the Ki entry in assay [2] and in assay [4] was “Not Active” in each case.

For the molecule `Cc1ccc(C)c(OCCCC(C)(C)C(=O)O)c1` [GEMFIBROZIL], the IC50 entry in assay [1] (cho-k1), in assay [2], in assay [3] (hela), in assay [4], in assay [5] and in assay [6] was “Not Active” in each case. For the same molecule, the inhibitory constant (Ki) entry in assay [2] and in assay [4] was “Not Active” in each case.

As to `O=c1c(-c2ccc(O)cc2)coc2cc(O)cc(O)c12` [GENISTEIN], the IC50 in assay [1] (read-out: IC50) was 16.9 µM; in assay [2], “Not Active”; in assay [3] (hela), “Not Active”; in assay [4] (read-out: IC50), 11 µM; in assay [5], “Not Active”; in assay [6] it was “Not Active”. The results for the inhibition constant Ki in assay [1] (read-out: Ki) and in assay [2] were 13.4 µM and “Not Active”, respectively.

Regarding `CCC1=C(C)CN(C(=O)NCCc2ccc(S(=O)(=O)NC(=O)N[C@H]3CC[C@H](C)CC3)cc2)C1=O` [GLIMEPIRIDE], the concentration for half-maximal inhibition (IC50) result in assay [1] (cho-k1), in assay [2], in assay [3] (hela), in assay [4], in assay [5] and in assay [6] was “Not Active” throughout. Also, the Ki entry in assay [2] and in assay [4] was “Not Active” throughout.

Regarding `Nc1cc(-c2ccncc2)c[nH]c1=O` [INAMRINONE], the concentration for half-maximal inhibition (IC50) result in assay [1] (cho-k1), in assay [2], in assay [3] (hela), in assay [4], in assay [5] and in assay [6] was “Not Active” in each case. Moreover, the Ki result in assay [2] and in assay [4] was “Not Active” throughout.

As for `CCCCC1=NC2(CCCC2)C(=O)N1Cc1ccc(-c2ccccc2-c2nnn[nH]2)cc1` [IRBESARTAN], the IC50 entry in assay [1] (cho-k1), in assay [2], in assay [3] (hela), in assay [4], in assay [5] and in assay [6] was “Not Active” throughout. The Ki result in assay [2] and in assay [4] was “Not Active” throughout.

On to `CN1CCC(=C2c3ccccc3CC(=O)c3sccc32)CC1` [KETOTIFEN], for which the IC50 result was “Not Active” in assay [1] (cho-k1); “Not Active” in assay [2]; 1.14 µM in assay [3] (read-out: IC50); “Not Active” in assay [4]; “Not Active” in assay [5]; “Not Active” in assay [6]. For the same molecule, the Ki entry was “Not Active” in assay [2], 0.53 µM in assay [3] (read-out: Ki) and “Not Active” in assay [4].

Regarding `N[C@@H](Cn1ccc(=O)c(O)c1)C(=O)O` [L-MIMOSINE], the concentration for half-maximal inhibition (IC50) entry in assay [1] (cho-k1), in assay [2], in assay [3] (hela), in assay [4], in assay [5] and in assay [6] was “Not Active” throughout. The Ki entry in assay [2] and in assay [4] was “Not Active” throughout.

In the case of `C[N+](C)(C)C[C@H](O)CC(=O)[O-]` [LEVOCARNITINE], the IC50 entry in assay [1] (cho-k1), in assay [2], in assay [3] (hela), in assay [4], in assay [5] and in assay [6] was “Not Active” in each case. Besides, the Ki entry in assay [2] and in assay [4] was “Not Active” throughout.

On to `C[C@H]1COc2c(N3CCN(C)CC3)c(F)cc3c(=O)c(C(=O)O)cn1c23.C[C@H]1COc2c(N3CCN(C)CC3)c(F)cc3c(=O)c(C(=O)O)cn1c23.O` [LEVOFLOXACIN], for which the IC50 result in assay [1] (cho-k1), in assay [2], in assay [3] (hela), in assay [4], in assay [5] and in assay [6] was “Not Active” in each case. Besides, the inhibition constant Ki result in assay [2] and in assay [4] was “Not Active” each time.

Take `CCn1cc(C(=O)O)c(=O)c2cc(F)c(N3CCNC(C)C3)c(F)c21` (stereo not given) [LOMEFLOXACIN]: the IC50 entry in assay [1] (cho-k1), in assay [2], in assay [3] (hela), in assay [4], in assay [5] and in assay [6] was “Not Active” throughout. In addition, the inhibition constant (Ki) result in assay [2] and in assay [4] was “Not Active” throughout.
